ChEMBL document CHEMBL1127114, “Conformationally constrained analogues of diacylglycerol. 5. 2,5-Dideoxy-3-O-tetradecanoyl-D-galactono-1,4-lactone: A superior homologue of 3-O-tetradecanoyl-2-deoxy-L-ribonolactone with PK-C binding affinity” (Bioorg Med Chem Lett, 1993)

Key:
[1] = target: T1, Protein kinase C alpha type (Homo sapiens, UniProt P17252); assay: Inhibition of [3H]phorbol-12,13-dibutyrate binding to PK-C
[2] = target: T1, Protein kinase C alpha type; assay: Inhibition of [20-3H]phorbol-12,13-dibutyrate(PDBU) binding to purified PK-C alpha

Ki [1] | Ki [2] | Structure (SMILES)
2500 nM | 1500 nM | CCCCCCCCCCCCCC(=O)O[C@@H]1CC(=O)O[C@H]1CO
 | 880 nM | CCCCCCCCCCCCCC(=O)O[C@@H]1CC(=O)O[C@H]1CCO
